Results reported in ChEMBL document CHEMBL1201862, “PubChem BioAssay data set” (2004).
Several values for one entry are separate records, joined by “and”; a condition that tells them apart may be missing. Equal values may be shown once. Activity calls are given as the source filed them.

What was measured:
NIH3T3 = assay: mammalian cell viability counter-check – Alamar Blue, fluconazole, dry powder, cytotoxicity control for antifungal drug resistance project, dose response (AID 488809); format: functional, cell-based; details: Mus musculus
[1] = molecular target: T1, Tyrosine-protein phosphatase non-receptor type 7 (Homo sapiens, UniProt P35236); format: functional
T1 sequence (P35236 whole entry): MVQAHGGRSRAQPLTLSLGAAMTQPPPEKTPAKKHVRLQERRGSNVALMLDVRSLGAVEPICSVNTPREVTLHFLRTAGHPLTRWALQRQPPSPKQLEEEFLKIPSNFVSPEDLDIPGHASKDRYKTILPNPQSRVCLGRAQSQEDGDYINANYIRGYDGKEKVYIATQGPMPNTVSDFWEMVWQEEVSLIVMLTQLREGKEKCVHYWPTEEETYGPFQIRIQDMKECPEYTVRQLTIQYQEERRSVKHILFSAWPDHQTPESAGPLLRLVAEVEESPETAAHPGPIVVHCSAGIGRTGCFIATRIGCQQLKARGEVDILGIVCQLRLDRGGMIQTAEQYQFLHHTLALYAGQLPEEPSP

[2] = molecular target: T2, Dual specificity protein phosphatase 6 (Rattus norvegicus, UniProt Q64346)
T2 sequence (Q64346 whole entry): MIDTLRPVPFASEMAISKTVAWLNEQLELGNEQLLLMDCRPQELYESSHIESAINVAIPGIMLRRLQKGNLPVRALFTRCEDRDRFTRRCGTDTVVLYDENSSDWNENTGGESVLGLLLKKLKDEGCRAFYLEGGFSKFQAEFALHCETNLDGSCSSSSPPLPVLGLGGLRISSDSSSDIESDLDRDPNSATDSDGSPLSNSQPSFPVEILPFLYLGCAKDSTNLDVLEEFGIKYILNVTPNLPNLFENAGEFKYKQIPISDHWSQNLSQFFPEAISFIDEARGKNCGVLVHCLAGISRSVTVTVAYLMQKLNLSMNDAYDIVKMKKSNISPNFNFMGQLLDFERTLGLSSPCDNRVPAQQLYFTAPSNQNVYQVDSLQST

[3] = molecular target: Glyceraldehyde-3-phosphate dehydrogenase (Homo sapiens, UniProt P04406)
Glyceraldehyde-3-phosphate dehydrogenase, sequence (P04406 whole entry): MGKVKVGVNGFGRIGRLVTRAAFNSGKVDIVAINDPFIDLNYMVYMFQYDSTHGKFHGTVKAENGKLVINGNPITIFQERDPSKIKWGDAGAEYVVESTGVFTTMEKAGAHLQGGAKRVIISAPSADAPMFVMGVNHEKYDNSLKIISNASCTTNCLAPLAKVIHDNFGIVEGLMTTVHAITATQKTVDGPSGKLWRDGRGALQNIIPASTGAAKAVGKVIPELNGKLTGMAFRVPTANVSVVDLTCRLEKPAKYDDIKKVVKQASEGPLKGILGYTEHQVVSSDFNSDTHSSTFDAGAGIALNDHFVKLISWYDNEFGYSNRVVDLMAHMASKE

[4] = molecular target: T2, Dual specificity protein phosphatase 6; format: functional
MDCK [5] = assay: antiviral activity against H1N1 influenza, dose response, cell-based, strain KY136 (AID 540257); format: functional; details: Canis lupus familiaris
MDCK [6] = assay: MDCK cell cytotoxicity, dose response, cytotoxicity control (AID 540296); format: functional; details: Canis lupus familiaris
Vero = assay: Vero E6 cell cytotoxicity, dose response, cytotoxicity control (AID 540298); format: functional; details: Chlorocebus sabaeus
Nonstructural protein 1 = Nonstructural protein 1 (Influenza A virus, UniProt Q194T2); format: functional, Influenza A virus (A/California/07/2009(H1N1))
Nonstructural protein 1, sequence (Q194T2 whole entry): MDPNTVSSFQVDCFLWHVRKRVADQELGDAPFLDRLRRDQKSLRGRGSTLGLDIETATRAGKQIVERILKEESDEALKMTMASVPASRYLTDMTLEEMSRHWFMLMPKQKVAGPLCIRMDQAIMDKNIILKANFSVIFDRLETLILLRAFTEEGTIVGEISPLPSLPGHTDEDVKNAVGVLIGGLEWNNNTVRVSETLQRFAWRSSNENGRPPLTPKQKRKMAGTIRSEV

[7] = molecular target: T3, Endoribonuclease toxin MazF (Escherichia coli K-12, UniProt P0AE70); assay: substrate-only fluorescence increase artefacts – biochemical, single-stranded RNase substrate, counter-screen for MazEF activator project, dose response (AID 588502); format: functional
T3 sequence (P0AE70 whole entry): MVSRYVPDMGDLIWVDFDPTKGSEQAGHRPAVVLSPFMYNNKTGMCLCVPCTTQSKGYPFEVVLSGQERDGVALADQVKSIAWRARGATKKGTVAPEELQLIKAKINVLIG

[8] = molecular target: T3, Endoribonuclease toxin MazF; assay: MazEF toxin-antitoxin RNase activation – biochemical, fluorescence, single-stranded RNA substrate, SAR follow-up (AID 588603); format: functional
[9] = molecular target: T3, Endoribonuclease toxin MazF; assay: activation of MazEF endoribonuclease cleavage – biochemical, fluorescence, single-stranded RNA substrate, uHTS hits, dose response (AID 588481); format: functional
[10] = molecular target: T3, Endoribonuclease toxin MazF; assay: SAR analysis of small molecule activators of the MazEF TA System via a fluorescence-based single-stranded RNase assay counterscreen. [Related pubchem assays (depositor defined):AID504720, AID504743]; format: functional
MEF = assay: SAR analysis of small molecule cytotoxicity of MazEF TA System activators in embryonic fibroblast (MEF) cells. [Related pubchem assays (depositor defined):AID504720, AID504743]; format: functional; details: Mus musculus
Mu-type opioid receptor = Mu-type opioid receptor (Homo sapiens, UniProt P35372); assay: (§1) Counterscreen for agonists of heterodimerization of the mu 1 (OPRM1) and delta 1 (OPRD1) opioid receptors: Luminescence-based cell-based high throughput dose response assay to identify agonists of OPRM1 homodimerization.; format: functional
Mu-type opioid receptor, sequence (P35372 whole entry): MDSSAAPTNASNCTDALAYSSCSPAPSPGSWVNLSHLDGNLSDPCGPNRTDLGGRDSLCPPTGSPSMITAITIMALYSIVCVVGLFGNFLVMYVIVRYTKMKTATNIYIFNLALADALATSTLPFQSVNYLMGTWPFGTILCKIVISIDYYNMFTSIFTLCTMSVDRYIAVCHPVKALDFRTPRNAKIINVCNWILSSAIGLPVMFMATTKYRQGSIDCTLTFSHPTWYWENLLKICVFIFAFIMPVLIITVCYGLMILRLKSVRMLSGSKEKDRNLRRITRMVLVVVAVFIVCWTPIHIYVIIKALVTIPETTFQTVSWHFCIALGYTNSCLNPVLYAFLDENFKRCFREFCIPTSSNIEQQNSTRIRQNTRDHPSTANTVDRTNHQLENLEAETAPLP

[11] = molecular target: Delta-type opioid receptor (Homo sapiens, UniProt P41143); assay: as §1, with “of OPRD1” for “of OPRM1”, “homodimerization. [Related pubchem assays (depositor defined):AID504326, AID504355, AID504692, AID504904, AID504905]” for “homodimerization.”; format: functional
Delta-type opioid receptor, sequence (P41143 whole entry): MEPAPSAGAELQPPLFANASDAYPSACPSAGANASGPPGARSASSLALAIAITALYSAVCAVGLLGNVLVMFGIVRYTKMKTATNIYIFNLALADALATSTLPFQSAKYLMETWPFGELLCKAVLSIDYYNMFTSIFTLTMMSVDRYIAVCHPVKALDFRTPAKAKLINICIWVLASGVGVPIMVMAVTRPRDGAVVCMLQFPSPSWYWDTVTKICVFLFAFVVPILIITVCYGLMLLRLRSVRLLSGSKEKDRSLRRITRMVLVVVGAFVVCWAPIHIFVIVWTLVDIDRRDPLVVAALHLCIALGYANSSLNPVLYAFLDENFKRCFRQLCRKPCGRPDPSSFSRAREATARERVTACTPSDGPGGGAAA

[12] = molecular target: 5-hydroxytryptamine receptor 5A (Homo sapiens, UniProt P47898); assay: Counterscreen for agonists of OPRM1-OPRD1 heterodimerization: luminescence-based cell-based high throughput dose response assay to identify agonists of 5-hydroxytryptamine (serotonin) 5A receptor (HTR5A). [Related pubchem assays (depositor defined):AID504326, AID504355, AID504692, AID504904, AID504905]; format: functional
5-hydroxytryptamine receptor 5A, sequence (P47898 whole entry, the tested form may be a part): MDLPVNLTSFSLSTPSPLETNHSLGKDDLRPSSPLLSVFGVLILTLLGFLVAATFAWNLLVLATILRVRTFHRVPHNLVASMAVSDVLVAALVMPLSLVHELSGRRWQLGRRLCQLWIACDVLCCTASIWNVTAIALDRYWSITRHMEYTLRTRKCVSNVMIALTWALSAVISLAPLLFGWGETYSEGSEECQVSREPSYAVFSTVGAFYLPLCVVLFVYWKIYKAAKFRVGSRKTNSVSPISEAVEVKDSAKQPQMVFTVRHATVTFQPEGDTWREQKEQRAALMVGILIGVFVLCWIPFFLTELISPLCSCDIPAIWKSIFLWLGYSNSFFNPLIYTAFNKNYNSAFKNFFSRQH

[13] = molecular target: T4, Carboxy-terminal domain RNA polymerase II polypeptide A small phosphatase 1 (Homo sapiens, UniProt Q9GZU7); assay: CTDSP1 inhibitors, concentration-response, biochemical, absorbance readout, ultra-high-throughput screen actives (AID 540297); format: functional
T4 sequence (Q9GZU7 whole entry): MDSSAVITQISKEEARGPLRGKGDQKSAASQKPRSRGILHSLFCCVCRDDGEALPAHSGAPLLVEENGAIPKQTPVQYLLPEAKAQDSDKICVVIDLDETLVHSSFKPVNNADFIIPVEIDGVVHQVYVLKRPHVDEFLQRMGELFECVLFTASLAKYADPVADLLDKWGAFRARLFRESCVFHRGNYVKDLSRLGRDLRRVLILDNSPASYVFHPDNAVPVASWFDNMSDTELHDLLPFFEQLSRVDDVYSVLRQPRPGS

[14] = molecular target: T5, Tyrosyl-DNA phosphodiesterase 2 (Homo sapiens, UniProt O95551); assay: potency against TDP2 phosphodiesterase activity – biochemical, epi absorbance, IC50, dose response (AID 743297)
T5 sequence (O95551 whole entry): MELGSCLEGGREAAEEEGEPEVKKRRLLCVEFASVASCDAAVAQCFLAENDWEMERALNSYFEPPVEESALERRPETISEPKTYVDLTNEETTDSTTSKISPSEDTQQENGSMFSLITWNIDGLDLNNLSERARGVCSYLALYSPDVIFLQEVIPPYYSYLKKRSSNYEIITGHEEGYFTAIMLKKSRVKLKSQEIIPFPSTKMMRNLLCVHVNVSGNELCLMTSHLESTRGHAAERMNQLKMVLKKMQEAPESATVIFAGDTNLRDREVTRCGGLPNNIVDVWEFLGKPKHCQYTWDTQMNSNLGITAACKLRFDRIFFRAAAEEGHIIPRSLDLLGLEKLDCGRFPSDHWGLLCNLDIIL

Hexokinase HKDC1 = Hexokinase HKDC1 (Homo sapiens, UniProt Q2TB90); assay: inhibition of HKDC1 glucose phosphorylation – biochemical, W721R variant, dose response (AID 504729); format: functional
Hexokinase HKDC1, sequence (Q2TB90 whole entry): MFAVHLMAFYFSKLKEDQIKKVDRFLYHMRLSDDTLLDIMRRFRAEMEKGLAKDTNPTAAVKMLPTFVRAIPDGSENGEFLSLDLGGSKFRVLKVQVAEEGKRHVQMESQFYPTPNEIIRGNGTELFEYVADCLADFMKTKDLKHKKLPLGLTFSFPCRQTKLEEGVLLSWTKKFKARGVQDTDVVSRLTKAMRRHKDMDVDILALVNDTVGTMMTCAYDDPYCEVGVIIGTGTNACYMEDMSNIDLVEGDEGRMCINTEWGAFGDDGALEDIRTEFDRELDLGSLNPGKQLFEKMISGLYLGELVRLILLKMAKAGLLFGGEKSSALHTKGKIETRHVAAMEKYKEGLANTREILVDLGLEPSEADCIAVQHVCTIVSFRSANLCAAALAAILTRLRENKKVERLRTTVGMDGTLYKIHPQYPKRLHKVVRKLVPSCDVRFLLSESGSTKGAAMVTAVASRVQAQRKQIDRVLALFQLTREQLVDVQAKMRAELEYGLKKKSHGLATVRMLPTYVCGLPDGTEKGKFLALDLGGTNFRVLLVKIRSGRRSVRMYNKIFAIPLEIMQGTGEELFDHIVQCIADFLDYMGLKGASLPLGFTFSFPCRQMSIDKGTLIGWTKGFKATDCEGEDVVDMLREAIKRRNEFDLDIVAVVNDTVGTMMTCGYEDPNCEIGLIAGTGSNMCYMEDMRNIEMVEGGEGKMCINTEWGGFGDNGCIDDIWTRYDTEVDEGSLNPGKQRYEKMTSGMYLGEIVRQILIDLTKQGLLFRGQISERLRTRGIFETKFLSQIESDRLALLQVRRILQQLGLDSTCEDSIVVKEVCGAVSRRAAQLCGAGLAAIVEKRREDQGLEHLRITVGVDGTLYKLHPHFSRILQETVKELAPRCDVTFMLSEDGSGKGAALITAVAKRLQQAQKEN

[15] = molecular target: Beta-adrenergic receptor kinase 1 (Homo sapiens, UniProt P25098); assay: aptamer displacement from bead-bound GRK2 – biochemical, cherry pick 1, bead flow cytometry, dose response (AID 504500)
Beta-adrenergic receptor kinase 1, sequence (P25098 whole entry): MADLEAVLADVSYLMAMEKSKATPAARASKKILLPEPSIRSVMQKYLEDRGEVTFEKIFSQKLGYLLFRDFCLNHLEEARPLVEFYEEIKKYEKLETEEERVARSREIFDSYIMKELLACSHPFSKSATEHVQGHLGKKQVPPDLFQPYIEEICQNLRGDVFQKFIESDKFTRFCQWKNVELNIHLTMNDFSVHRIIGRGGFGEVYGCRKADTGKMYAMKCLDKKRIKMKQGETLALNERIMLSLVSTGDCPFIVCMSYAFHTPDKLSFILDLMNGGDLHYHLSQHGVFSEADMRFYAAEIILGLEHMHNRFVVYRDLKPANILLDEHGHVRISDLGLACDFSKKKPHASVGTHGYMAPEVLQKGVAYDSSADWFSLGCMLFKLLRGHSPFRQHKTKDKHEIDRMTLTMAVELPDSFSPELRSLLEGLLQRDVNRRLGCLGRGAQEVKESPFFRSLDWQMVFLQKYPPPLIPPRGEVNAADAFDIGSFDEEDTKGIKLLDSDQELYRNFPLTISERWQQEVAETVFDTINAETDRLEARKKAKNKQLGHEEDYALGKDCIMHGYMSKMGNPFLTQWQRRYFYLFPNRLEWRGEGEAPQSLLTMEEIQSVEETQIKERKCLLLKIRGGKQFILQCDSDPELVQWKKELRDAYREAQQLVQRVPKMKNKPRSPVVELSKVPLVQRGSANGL

HEK293 [16] = assay: cells; details: Homo sapiens
HEK293 [17] = assay: cells; details: Homo sapiens; remark: listed apart in the source
[18] = Luminescent dose response cell-based high throughput screening assay for inhibitors of the Janus kinase 2 mutant JAK2V617F. [Related pubchem assays: 1446 (Primary screen.), 1521 (Confirmation assay.), 1486 (Counter screen.)]; format: functional
[19] = molecular target: T6, High affinity choline transporter 1 (Homo sapiens, UniProt Q9GZV3); assay: human choline transporter blockers, potency – cell-based, 5-point CRC, membrane potential dye, dose response (AID 504840); format: functional
T6 sequence (Q9GZV3 whole entry): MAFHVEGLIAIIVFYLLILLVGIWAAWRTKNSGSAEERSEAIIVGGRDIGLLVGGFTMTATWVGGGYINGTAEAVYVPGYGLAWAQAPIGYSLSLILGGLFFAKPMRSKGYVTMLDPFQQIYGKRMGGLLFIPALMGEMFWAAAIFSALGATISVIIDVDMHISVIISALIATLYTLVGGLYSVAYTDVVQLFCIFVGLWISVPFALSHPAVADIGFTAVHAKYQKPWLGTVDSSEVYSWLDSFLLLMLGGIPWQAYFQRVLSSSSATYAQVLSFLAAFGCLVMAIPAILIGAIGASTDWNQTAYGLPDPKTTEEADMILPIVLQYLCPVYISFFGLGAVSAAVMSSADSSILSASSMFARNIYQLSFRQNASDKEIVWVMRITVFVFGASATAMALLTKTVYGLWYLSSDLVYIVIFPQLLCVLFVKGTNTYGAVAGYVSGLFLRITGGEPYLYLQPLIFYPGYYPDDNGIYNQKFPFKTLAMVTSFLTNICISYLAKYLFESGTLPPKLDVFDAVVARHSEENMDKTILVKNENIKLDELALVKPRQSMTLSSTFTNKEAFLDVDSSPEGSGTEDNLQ

Cytochrome P450 1A2 = molecular target: T7, Cytochrome P450 1A2 (Homo sapiens, UniProt P05177);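 note: PubChem cytochrome P450 panel assay, CYP1A2 panel member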
T7 sequence (P05177 whole entry): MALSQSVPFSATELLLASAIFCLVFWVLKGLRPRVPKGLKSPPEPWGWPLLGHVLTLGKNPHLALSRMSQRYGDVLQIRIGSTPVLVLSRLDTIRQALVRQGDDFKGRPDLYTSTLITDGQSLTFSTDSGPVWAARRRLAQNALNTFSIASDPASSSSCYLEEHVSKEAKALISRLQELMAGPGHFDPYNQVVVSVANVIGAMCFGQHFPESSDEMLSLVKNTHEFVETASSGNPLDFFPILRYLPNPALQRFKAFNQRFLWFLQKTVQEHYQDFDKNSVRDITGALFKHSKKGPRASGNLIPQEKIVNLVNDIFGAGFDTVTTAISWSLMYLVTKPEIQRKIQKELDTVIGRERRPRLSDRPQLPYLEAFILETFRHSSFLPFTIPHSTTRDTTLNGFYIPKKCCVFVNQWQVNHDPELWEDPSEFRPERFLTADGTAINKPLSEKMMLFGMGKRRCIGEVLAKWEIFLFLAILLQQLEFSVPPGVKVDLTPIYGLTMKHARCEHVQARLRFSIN

Cytochrome P450 2D6 = Cytochrome P450 2D6 (Homo sapiens, UniProt P10635);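 note: CYP2D6 member of a cytochrome P450 panel assay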
Cytochrome P450 2D6, sequence (P10635 whole entry): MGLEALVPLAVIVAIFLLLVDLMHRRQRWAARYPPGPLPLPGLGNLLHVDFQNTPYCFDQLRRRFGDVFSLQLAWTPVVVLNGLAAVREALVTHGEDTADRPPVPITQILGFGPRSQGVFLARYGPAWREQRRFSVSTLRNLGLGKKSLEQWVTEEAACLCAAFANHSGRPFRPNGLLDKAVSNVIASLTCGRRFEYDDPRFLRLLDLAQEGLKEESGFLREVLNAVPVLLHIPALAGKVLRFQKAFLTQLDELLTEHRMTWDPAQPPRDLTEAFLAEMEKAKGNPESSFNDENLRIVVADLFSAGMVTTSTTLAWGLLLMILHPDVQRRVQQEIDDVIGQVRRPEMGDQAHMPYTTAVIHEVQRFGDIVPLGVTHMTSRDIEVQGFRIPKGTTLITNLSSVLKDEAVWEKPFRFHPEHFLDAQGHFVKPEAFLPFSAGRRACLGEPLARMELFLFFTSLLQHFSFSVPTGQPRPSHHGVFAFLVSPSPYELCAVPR

[20] = molecular target: Voltage-gated inwardly rectifying potassium channel KCNH2 (Homo sapiens, UniProt Q12809); details: Potency;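 note: confirmatory quantitative high-throughput screen measuring inhibition of hERG channel activity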
Voltage-gated inwardly rectifying potassium channel KCNH2, sequence (Q12809 whole entry): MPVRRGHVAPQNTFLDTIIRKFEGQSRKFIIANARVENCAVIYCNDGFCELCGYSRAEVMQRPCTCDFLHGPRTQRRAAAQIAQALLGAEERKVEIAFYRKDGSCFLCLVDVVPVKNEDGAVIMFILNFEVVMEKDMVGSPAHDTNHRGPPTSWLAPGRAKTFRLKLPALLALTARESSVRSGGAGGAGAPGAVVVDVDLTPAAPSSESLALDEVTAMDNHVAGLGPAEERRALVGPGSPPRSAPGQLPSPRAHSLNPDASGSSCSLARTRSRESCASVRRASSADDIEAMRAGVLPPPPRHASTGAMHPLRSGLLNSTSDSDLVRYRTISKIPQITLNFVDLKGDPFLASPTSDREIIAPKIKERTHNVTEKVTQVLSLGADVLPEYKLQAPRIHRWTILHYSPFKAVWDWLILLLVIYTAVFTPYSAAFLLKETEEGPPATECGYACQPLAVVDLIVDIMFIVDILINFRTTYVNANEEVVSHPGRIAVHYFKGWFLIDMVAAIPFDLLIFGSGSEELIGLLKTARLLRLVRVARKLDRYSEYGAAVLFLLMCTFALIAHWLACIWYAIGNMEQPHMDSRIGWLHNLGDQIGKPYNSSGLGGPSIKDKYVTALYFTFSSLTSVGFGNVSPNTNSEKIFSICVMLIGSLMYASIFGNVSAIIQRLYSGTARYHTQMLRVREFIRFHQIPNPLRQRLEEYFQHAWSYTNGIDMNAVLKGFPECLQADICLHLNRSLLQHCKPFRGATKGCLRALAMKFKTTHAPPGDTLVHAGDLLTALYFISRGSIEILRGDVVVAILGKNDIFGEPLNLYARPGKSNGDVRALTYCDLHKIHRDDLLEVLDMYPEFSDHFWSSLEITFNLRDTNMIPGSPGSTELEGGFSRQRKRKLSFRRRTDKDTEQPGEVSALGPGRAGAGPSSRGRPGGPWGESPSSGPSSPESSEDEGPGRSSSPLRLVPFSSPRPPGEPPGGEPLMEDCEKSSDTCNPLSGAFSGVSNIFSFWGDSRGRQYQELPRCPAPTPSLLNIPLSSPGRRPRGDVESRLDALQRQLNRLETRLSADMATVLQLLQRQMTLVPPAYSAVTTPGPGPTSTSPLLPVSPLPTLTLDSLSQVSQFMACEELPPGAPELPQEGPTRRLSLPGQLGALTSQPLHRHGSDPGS

## CCOC(=O)c1nn(Cc2ccc(Cl)cc2)c2ccccc12
NIH3T3
  AC50: 39 µM (active)

## C#CCCCCCCCCCCCCCCCCCC
[1]
  IC50: > 100 µM (not active)
[2]
  IC50: > 100 µM (inactive)
[3]
  IC50: > 100 µM (not active)
[4]
  IC50: > 100 µM (inactive)

## Fc1ccc(-[n+]2nc(Nc3ccccc3)sc2-c2c(Cl)cccc2Cl)cc1
MDCK [5]
  IC50: > 100 µM (active)
MDCK [6]
  CC50: 11.6 µM (active)
Vero
  CC50: 23.2 µM (active)
Nonstructural protein 1
  IC50: 51.2 µM (active)

## O=C(C1=NN[C@@H]2C(=O)N(c3cccc(F)c3)C(=O)[C@H]12)c1ccc2ccccc2n1
[7]
  EC50: > 99 µM (inactive)
[8]
  EC50: 24.4 µM (inactive)
[9]
  EC50: 20.5 µM (inactive)
[10]
  EC50: > 99 µM (inactive)
MEF
  CC50: > 99 µM (inactive)

## Cc1ccc(C)c(-n2cc(CNC(C)Cn3cncn3)c(-c3ccccc3)n2)c1 (centres undefined)
Mu-type opioid receptor
  EC50: > 92.5 µM (inactive)
[11]
  EC50: > 92.5 µM (inactive)
[12]
  EC50: > 92.5 µM (inactive)

## O=C(O)c1ccccc1-c1c2cc(I)c(=O)c(I)c-2oc2c(I)c(O)c(I)cc12
[13]
  IC50: 1.89 µM (active)
[14]
  IC50: > 14.3 µM (inactive) and 35.7 µM (inactive)
Hexokinase HKDC1
  IC50: 14.4 µM (active)
Nonstructural protein 1
  IC50: 19.4 µM (active)
[15]
  EC50: 14.7 µM (inactive)

## COc1ccc(C2=Nn3c(nnc3C3CCCCC3)SC2)cc1OC
HEK293 [16]
  EC50: > 59.6 µM (inactive)
HEK293 [17]
  EC50: > 59.6 µM (inactive)
[18]
  IC50: 3.41 µM (active)
[19]
  IC50: 1.74 µM (active)

## CS(=O)(=O)O.Cc1ccc(N(CC2=NCCN2)c2cccc(O)c2)cc1 [PHENTOLAMINE MESYLATE]
Cytochrome P450 1A2
  AC50: inactive
Cytochrome P450 2D6
  AC50: 3.16 µM (active)

## Brc1ccc(-c2ccccc2)cc1
[20]
  AC50: 39.8 µM (inconclusive)
